What was measured:
[1] = system: Balb/c male mice, CAIA model; type: in vivo, mouse; details: for ankle thickness: C4BP(β−) 50 μg sc d3 and d5, dexamethasone 1 mg/kg po d5-11, Enbrel 30 mg/kg sc d5-11; for body weight vs CAIA control group: mouse, in vivo
Description: Collagen-antibody induced arthritis (CAIA) is a simple mouse model of human rheumatoid arthritis (RA) induced by the systemic administration of a cocktail of monoclonal antibodies directed against conserved auto-antigenic collagen type II epitopes, followed by a single injection of lipopolysaccharide (LPS). CAIA is a useful model to study the effector inflammatory phase of arthritis without involving the priming phase of the immune response. The murine CAIA model shares several clinical, immunological and pathological features with RA. Therefore, this model is useful to study the pathogenic mechanisms involved in RA disease as well as for testing new therapies.
Balb/c male mice aged 7-8 weeks were supplied by Envigo. The animals were acclimated during 12 days. The animals were maintained in an environmentally controlled room with ventilation, temperature (22±2° C.), relative humidity (35-65%), and cycle light/dark (12 h/12 h). The animals were housed in groups of 3-5 animals/cage. The maintenance diet was supplied by Harlan Interfauna Ibérica, S. L. (“2014 Harlan Teklad Global Diets”) and they were feed diet and water ad libitum.
Plasmatic C4BP(β−) was supplied at a concentration of 6.2 mg/ml. C4BP(β−) solutions were prepared to the desired concentration 0.33 mg/ml (for 50 μg doses) by dilution with Dulbecco's phosphate-buffered saline (DPBS) of C4BP(β−) 6.2 mg/ml stock solution.
Two reference compounds were used: dexamethasone (Sigma, Ref. D1756) and Enbrel® (etanercept) (Pfizer, Ref. 655950).
Reference compound dexamethasone was dissolved in vehicle (0.1% Tween-80+99% carboxymethyl cellulose (CMC) (0.5% w/v) in water at a concentration of 0.1 mg/ml.
Enbrel® was prepared at 6 mg/ml in DPBS by dilution of 50 mg/mL stock solution.
Experimental Procedure Day 0: Arthritis Induction
On day 0, animals for experimental group C4BPd3 were randomly selected (n=8) and identified using tail code numbers and weighted.
Each mouse was sensitized by the administration of 2 mg anti-type II collagen antibodies cocktail (ArthritoMAB™ cocktail solution, 0.2 mL, i.v., day 0) in the caudal vein.
Day 3: LPS Synchronization
Animals were intraperitoneally administered with 0.1 mL of LPS solution (0.7 mg/ml, 70 μg/animal).
50 μg of C4BP(β−) were administered subcutaneously at day 3 to treatment group C4BPd3.
50 μg of C4BP(β−) were administered subcutaneously at day 5 to treatment group C4BPd3.
Day 5: Animal Distribution
On day 5 after sensitization, the rest of the animals developing clinical signs of arthritis (n=18) were evaluated and distributed in base of CAIA+incidence. Animals were homogeneously randomized (arthritis score) into the CAIA control group, dexamethasone (1 mg/kg at days 5-11, p.o.) and Enbrel®-treated groups (30 mg/kg at days 5-11, s.c.) (n=6). Animals were identified using tail code numbers and weighted.
Group 2 was not included in the distribution because of the previous test item administration.
The arthritis score was determined using the criteria of Table 9.
Treatment: • C4BPd3 group: 50 μg of C4BP(β−) were subcutaneously injected to animals on days 3 and 5. Volume: 0.150 mL. • Reference compound treatments and CAIA control groups (days 5-11): • Enbrel®: 30 mg/kg of Enbrel® was subcutaneously administered to Enbrel group from days 5 to 11. Volume: 5 mL/kg. • Dexamethasone: 1 mg/kg dexamethasone was orally administered to dexamethasone group from days 5 to 11. Volume: 10 mL/kg. • CAIA control group: 0.150 mL of DPBS was subcutaneously administered from days 5 to 11. Arthritis Monitoring:
Body weights were registered daily from days 0-12 in C4BPd3 and from days 5-12 in CAIA control, dexamethasone and Enbrel® groups. Arthritis scores were determined by the same observer in order to avoid observer bias.
The study was finished at day 12.
Animals were anesthetized with isoflurane. Ankles and wrists thickness were measured using a dial thickness gauge. Serum samples were collected and stored at −20° C. […]

[2] = system: human monocyte-derived DCs; assay: Immunomodulatory activity over human monocyte-derived DCs: CD83/CD86 surface expression by flow cytometry after LPS maturation; type: cell-based; details: Example 1
Procedure: In Vitro Functional Assessment of the Immunomodulatory Activity of Full-Length C4BP(β−) and C4BP(β−) Variants Over DCs
The inventors used for the in vitro study both C4BP(β+) (WT) and recombinant C4BP(β−) isoforms, and the above-referred mutants or variants: Mutant 1 and Mutant 2. C4BP(β+) isoforms refer to the major C4BP α7β1 plus the minor C4BP α6β1 isoforms (both in complex with ProS) purified from pooled human plasma.
RPMI 1640 was supplemented with 100 μg/ml of streptomycin, 100 IU/ml of penicillin, 2 mM L-glutamine (all from Invitrogen, Carlsbad, CA) and 10% heat-inactivated fetal bovine serum (Linus, Cultek, Spain) (complete medium), unless otherwise stated.
Peripheral blood mononuclear cells (PBMCs) were obtained from buffy coat preparations collected from healthy donors from the Blood and Tissue Bank (Barcelona, Spain) after Ficoll-Paque™ density centrifugation (GE Healthcare Bio-Sciences AB; Uppsala, Sweden). For surface phenotype determination, monocytes were plated at 1×10^6 cells/ml in 60 mm culture plates (Corning, Spain), in RPMI 1640 medium without serum, and allowed to adhere for 2 h at 37° C. in 5% CO2. The non-adherent cells were removed by washing in PBS.
Monocyte-derived DCs were generated supplementing the monocyte cultures with complete RPMI 1640 medium plus GM-CSF (800 UI/ml) and IL-4 (500 UI/ml) (both from Gentaur, Kampenhout, Belgium) at day 0 and day 3 of culture. For DC maturation, at day 5 iDCs were further stimulated for 48 h with 5 μg/ml LPS (Escherichia coli 055.B5, Sigma L2880, Copenhagen, Denmark).
Staining using the fluorescent dye 7-amino-actinomycin D (7-AAD) (BD Pharmigen) and flow cytometry analysis was employed to assess the viability status of C4BP-treated and untreated DCs.
Cell surface phenotypes were analyzed by flow cytometry using the following mAbs: FITC-conjugated anti-CD83 (HB15a) and PE-conjugated anti-CD86 (HA5.2B7) (all from Beckman-Coulter). The respective isotype controls FITC-conjugated anti-IgG2b (H2) and PE-conjugated anti-IgG2b (H2), were from the same commercial sources. After washing with PBS, cells were subsequently stained with 3 μl mAb/10^5 cells in 100 μl of FACS buffer (PBS containing 1% BSA and 0.1% sodium azide) for 20 min at room temperature. To exclude dead cells and debris, DCs were gated according to forward scatter (FSC) and side scatter (SSC) parameters. Stained cells were analyzed using a FACSCalibur (Becton Dickinson, Franklin Lakes, NJ) equipped with CellQuestPro software (Becton Dickinson).
In Vitro Functional Assessment of C4BP(β−) Immunomodulatory Activity Over DCs
The inventors used for the in vitro study both C4BP(+) and C4BP(β−) isoforms. C4BP(3+) isoforms refer to the major C4BP α7β1 plus the minor C4BP α6β1 isoforms (both in complex with ProS) purified from pooled human plasma, as previously described (Dahlbäck B. 1983. Biochem J., 209:847-56).

| Compound | inhibition of arthritis score vs. CAIA controls AUC ([1]; C4BP(β−) 50 μg sc days 3 and 5, dexamethasone 1 mg/kg po days 5-11) [%] | ankle thickness ([1]; day 12) [mm] | body weight vs CAIA control group [1] | immunomodulatory activity over DCs [2] | inhibition of arthritis score vs. CAIA controls d12 ([1]; Enbrel 30 mg/kg sc days 5-11) [%] | wrist thickness vs. CAIA control ([1]; day 12, regimens as Table 8) | arthritis scores / progression of arthritis ([1]; regimens as Table 8, vs CAIA control group) |
| --- | --- | --- | --- | --- | --- | --- | --- |
| C[C@@H]1C[C@H]2[C@@H]3CCC4=CC(=O)C=C[C@]4(C)[C@@]3(F)[C@@H](O)C[C@]2(C)[C@@]1(O)C(=O)CO [dexamethasone] | 73 | 2.63±0.05 | No remarkable differences |  |  |  |  |
| C4BP(CCP5-CCP8)(α7β0) [Mutant 1] |  |  |  | retains the immunomodulatory activity over DCs |  |  |  |
| etanercept [Enbrel] |  | 2.73±0.04 | No remarkable differences |  | 47 | No changes | progressive reduction of arthritis scores over time |

Reference: patent US12006343B2, “C4BP-based compounds for treating immunological diseases” (FUNDACIO INSTITUT D'INVESTIGACIO BIOMEDICA DE BELLVITGE …, priority 2017, dated 2024)
